From patent US5457095A, “Substituted propane-phosponous acid compounds” (Ciba-Geigy Corporation, priority 1984, dated 1995) come the findings set out here.

pIC50: −log10 of the molar value.

In one series the target is GABAB receptor sites (Homo sapiens, UniProt Q9UBS5). Briefly: affinity towards GABAB receptor sites. The format is binding.
For a further series, the system named is rotarod mice. Briefly: muscle relaxant activity, rotarod mice. The format is in vivo. The settings on record: Mus musculus, ip, read-out: ID50-value, muscle relaxant (rotarod mice).
Series [1] has as its system phenylquinone writhing in mice. As to the kind of experiment: analgesic activity, phenylquinone writhing in mice. The format is in vivo. The settings on record: Mus musculus, po.
In series [2] the test system is audiogenic seizures in DBA/2 mice. As to the kind of experiment: anticonvulsant activity, audiogenic seizures in DBA/2 mice. It counts as in vivo. The note with it: Mus musculus, ip, read-out: ID50-value, anticonvulsant (audiogenic seizures in DBA/2 mice).
The nature of another series: lethality at high dose. It counts as in vivo. The settings on record: dose of 200 mg/kg i.p.

GABAB receptor sites, sequence (Q9UBS5 15-961 limits assumed): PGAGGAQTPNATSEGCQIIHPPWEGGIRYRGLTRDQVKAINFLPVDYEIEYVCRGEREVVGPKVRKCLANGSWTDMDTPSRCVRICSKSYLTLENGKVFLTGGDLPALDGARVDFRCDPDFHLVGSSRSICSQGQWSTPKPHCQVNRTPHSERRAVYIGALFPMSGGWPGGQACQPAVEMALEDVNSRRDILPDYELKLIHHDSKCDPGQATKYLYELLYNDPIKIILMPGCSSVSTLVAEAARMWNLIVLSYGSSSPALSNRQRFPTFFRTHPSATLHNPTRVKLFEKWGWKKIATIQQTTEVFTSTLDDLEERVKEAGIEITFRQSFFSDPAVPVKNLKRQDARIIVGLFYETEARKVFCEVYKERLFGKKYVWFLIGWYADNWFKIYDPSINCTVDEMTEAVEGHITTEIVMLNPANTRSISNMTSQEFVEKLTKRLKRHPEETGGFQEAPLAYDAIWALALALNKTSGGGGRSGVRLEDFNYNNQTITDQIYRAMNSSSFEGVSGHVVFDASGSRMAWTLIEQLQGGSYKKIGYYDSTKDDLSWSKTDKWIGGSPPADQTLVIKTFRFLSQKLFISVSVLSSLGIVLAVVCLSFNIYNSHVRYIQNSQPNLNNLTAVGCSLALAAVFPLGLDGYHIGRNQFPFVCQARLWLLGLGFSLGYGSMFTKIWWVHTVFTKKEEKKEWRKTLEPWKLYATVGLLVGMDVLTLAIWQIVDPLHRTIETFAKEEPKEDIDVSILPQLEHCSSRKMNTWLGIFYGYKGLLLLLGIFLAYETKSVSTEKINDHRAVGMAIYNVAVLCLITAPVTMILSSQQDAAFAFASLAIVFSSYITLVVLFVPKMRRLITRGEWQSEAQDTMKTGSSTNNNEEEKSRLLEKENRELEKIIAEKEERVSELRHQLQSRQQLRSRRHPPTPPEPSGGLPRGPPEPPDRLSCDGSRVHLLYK
GABAB receptor sites, sequence (O75899 42-941 partner): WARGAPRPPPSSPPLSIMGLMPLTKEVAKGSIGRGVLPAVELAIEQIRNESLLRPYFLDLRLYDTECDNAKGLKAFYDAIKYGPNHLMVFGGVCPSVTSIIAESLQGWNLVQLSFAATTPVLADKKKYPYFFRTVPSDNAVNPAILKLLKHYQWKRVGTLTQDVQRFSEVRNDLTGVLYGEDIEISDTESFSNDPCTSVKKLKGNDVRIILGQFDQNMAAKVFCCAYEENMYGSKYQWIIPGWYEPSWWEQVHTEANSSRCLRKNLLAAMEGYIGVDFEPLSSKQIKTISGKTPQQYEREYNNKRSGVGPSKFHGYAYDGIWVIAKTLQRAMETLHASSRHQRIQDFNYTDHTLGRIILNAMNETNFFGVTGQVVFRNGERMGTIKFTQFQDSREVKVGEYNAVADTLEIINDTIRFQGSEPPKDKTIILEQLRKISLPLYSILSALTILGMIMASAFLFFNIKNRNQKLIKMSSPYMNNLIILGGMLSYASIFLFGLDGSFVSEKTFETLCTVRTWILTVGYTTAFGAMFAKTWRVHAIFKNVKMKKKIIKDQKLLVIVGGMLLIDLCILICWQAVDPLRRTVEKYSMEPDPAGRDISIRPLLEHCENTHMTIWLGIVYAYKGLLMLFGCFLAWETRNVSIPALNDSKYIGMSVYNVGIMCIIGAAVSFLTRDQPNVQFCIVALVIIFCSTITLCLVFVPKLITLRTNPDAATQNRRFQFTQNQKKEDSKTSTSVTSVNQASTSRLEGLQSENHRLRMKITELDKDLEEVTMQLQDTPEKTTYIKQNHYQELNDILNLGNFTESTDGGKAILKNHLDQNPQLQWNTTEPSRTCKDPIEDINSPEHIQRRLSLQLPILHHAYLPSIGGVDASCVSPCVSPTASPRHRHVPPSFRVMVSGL

Take `NCCCP(O)O` [Example 1, 3-aminopropylphosphonous acid]: the “activity relative to baclofen (times more pronounced)” value at GABAB receptor sites (compared with baclofen) was “at least 20 times”.
On to `NCC(CP(O)O)c1ccc(Cl)cc1` (stereo not drawn) [Example 8, 3-amino-2-(4-chlorophenyl)propylphosphonous acid], for which, on GABAB receptor sites (read-out: IC50-value at the GABAB receptor site), the pIC50 is 7.46. Moreover, the figures for the ED50 (in the series with rotarod mice; in series [1]; in series [2]) were 6 to 9 mg/kg, 4 mg/kg and 6 mg/kg, respectively. In addition, the deaths result in “lethality at high dose” is on record as “no deaths were observed”.
